The values below come from paper PMC5526996, “Structural basis for dolichylphosphate mannose biosynthesis” (Nature Communications, 2017).

Test [1] addresses T1, PfDPMS (Pyrococcus furiosus, UniProt Q8U4M3).
T1 construct: gene PF0058; E. coli C41(DE3) membranes, DDM or LDAO solubilised, mainly monomer
T1 sequence (Q8U4M3 1-352): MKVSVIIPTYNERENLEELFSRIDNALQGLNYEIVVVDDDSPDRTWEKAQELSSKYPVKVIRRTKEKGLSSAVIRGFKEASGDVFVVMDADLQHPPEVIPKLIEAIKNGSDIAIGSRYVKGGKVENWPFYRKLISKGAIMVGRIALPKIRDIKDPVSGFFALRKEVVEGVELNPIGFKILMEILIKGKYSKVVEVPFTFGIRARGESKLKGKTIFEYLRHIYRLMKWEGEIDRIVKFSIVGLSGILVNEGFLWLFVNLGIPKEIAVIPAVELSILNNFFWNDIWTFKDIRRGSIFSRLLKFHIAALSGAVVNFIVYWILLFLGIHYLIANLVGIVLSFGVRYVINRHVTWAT
Put plainly: X-ray crystallography. The format is binding. The settings on record: formed in reaction mixture at 60 °C; GDP bound, metal departed.

The target of test [2] is T1, PfDPMS. As to the kind of experiment: thermal shift, heat precipitation with SDS-PAGE densitometry. The format is binding. The settings on record: detergent-solubilised; compared with no Dol-P.
The target of test [3] is T1, PfDPMS. Put plainly: phosphate-coupled glycosyltransferase assay (malachite green). The format is biochemical. The conditions noted are these: 0.23 mM donor, Dol-P acceptor, 75 °C, pH 7.5.

As for `CC(C)=CCC/C(C)=C/CC/C(C)=C/CC/C(C)=C\CC/C(C)=C\CC/C(C)=C\CC/C(C)=C\CC/C(C)=C\CC/C(C)=C\CC/C(C)=C\CC[C@H](C)CCOP(=O)(O)O[C@@H]1O[C@H](CO)[C@@H](O)[C@H](O)[C@@H]1O` [Dol55-P-Man], the X-ray crystallography at PfDPMS [1] is reported as 5MM1 (PfDPMS•GDP•Dol55-P-Man).
For `CC(C)=CCC/C(C)=C/CC/C(C)=C/CC/C(C)=C\CC/C(C)=C\CC/C(C)=C\CC/C(C)=C\CC/C(C)=C\CC/C(C)=C\CC/C(C)=C\CC[C@H](C)CCOP(=O)(O)O` [Dol55-P], at PfDPMS [2], the ΔTm (in general, the change in melting temperature against a reference sample) came to 13.3 °C.
With `Nc1nc2c(ncn2[C@@H]2O[C@H](COP(=O)(O)OP(=O)(O)O[C@H]3O[C@H](CO)[C@@H](O)[C@H](O)[C@H]3O)[C@@H](O)[C@H]2O)c(=O)[nH]1` [GDP-Glc], the “phosphate-coupled glycosyltransferase assay (malachite green)” value on PfDPMS [3] is listed as “four-fold higher product formation with GDP-Man compared with GDP-Glc”.
